This is an account of results in patent publication US11253015B2, “Methods and devices for preventing viral transmission” (priority 2020, dated 2022).

In experiment [1] the test system is HaCaT human keratinocytes. In words: scratch assay, keratinocyte migration (culture inserts, time-lapse microscopy). In kind it is cell-based.
In experiment [2] the test system is HUVEC cells. In words: EF-induced elongation of endothelial cells (long:short axis ratio). The following applies: for long:short axis ratio in EF-treated cells: inhibitor present during EF. In kind it is cell-based, human. The procedure: HUVEC cells were seeded in a trough formed by two parallel (1 cm apart) strips of glass coverslip (No. 1, length of 22 mm) fixed to the base of the dish with silicone grease. Scratch lines were made perpendicular to the long axis of the chamber with a fine sterile needle and used as reference marks for directed cell migration. Cells were incubated for 24-48 hours (37° C., 5% CO2) before a roof coverslip was applied and sealed with silicone grease. The final dimensions of the chamber, through which current was passed, were 22×10×0.2 mm. Agar-salt bridges not less than 15 cm long were used to connect silver/silver-chloride electrodes in beakers of Steinberg's solution (58 mM NaCl, 0.67 mM KCl, 0.44 mM Ca(NO3)2, 1.3 mM MgSO4, 4.6 mM Trizma base, pH 7.8-8.0), to pools of excess culture medium at either side of the chamber. Field strengths were measured directly at the beginning of, the end of and during each experiment. No fluctuations in field strength were observed. […] (50 μM), the Rho kinase inhibitor Y27632 (50 μM), both Akt and Rho kinase inhibitors (10 μM each) or latrunculin (50 nM) for 1 hour before EF stimulation. The same concentration of drug was present during EF exposure in a CO2 incubator.
A series of images was taken with an image analyser immediately before EF exposure and at 4, 8 and 24 hours of EF exposure. Cell orientation was quantified as an orientation index (Oi), which is defined as Oi=cos 2(α), where a is the angle formed by the long axis of a cell with a line drawn perpendicular to the field lines. A cell with its long axis parallel to the vector of the EF will have an Oi of −1, and a cell with its long axis exactly perpendicular to the EF vector will have an Oi of +1. […] The significance of this two-dimensional orientation distribution against randomness was calculated using Rayleigh's distribution. A long:short axis ratio was calculated for assessment of elongation.
HUVEC cells elongated dramatically in an EF. […] We quantified the elongation of the cells using a long:short axis ratio. […]

Experiment [3] deals with HUVEC cells. Put plainly: EF-induced reorientation of endothelial cells (orientation index Oi). In kind it is cell-based, human.
Protocol: A series of images was taken with an image analyser immediately before EF exposure and at 4, 8 and 24 hours of EF exposure. Cell orientation was quantified as an orientation index (Oi), which is defined as Oi=cos 2(α), where a is the angle formed by the long axis of a cell with a line drawn perpendicular to the field lines. A cell with its long axis parallel to the vector of the EF will have an Oi of −1, and a cell with its long axis exactly perpendicular to the EF vector will have an Oi of +1. A randomly oriented population of cells will have an average Oi {defined as [Σn cos 2(α)]÷n} of 0. The significance of this two-dimensional orientation distribution against randomness was calculated using Rayleigh's distribution. A long:short axis ratio was calculated for assessment of elongation.
Cell alignment was quantified using an orientation index Oi=cos 2(α), where α is the angle formed between the long axis of a cell and a line drawn perpendicular to the field lines. In cells oriented perpendicular to the field vector, the Oi is +1, cells parallel to the field vector give an Oi of −1 and random orientation gives an Oi of 0.

Read-outs that look alike come from different tables or passages of the source.

In the case of `CC(=O)N[C@@H](CS)C(=O)O` [N-Acetyl Cysteine], the “increased migration observed with LLEC, with N-Acetyl Cysteine” value in experiment [1] (5 mM, 1 h pretreatment before scratch assay) is “failed to reproduce the increased migration”.
As to “1-L-6-hydroxymethyl-chiro-inositol 2-[(R)-2-O-methyl-3-O-octadecylcarbonate] [Akt inhibitor]”, the “long:short axis ratio in EF-treated cells” value in experiment [2] was “significantly decreased the long:short axis ratio”. Also, in experiment [3] (inhibitor 50 μM, 1 hour before and during EF), the orientation response result is recorded as “significantly decreased the orientation response”.
For `COc1cc([C@@H]2c3cc4c(cc3[C@H](O)[C@H]3COC(=O)[C@@H]23)OCO4)cc(OC)c1OC` [IGF-1R inhibitor, picropodophyllin], in experiment [1] (50 nM picropodophyllin just prior to scratch assay), the “increased keratinocyte migration observed with LLEC, with IGF-1R inhibitor” value is recorded as “attenuated the increased keratinocyte migration”.
As to `C[C@@H](N)[C@H]1CC[C@H](C(=O)Nc2ccncc2)CC1` [Y27632], the “long:short axis ratio in EF-treated cells” value in experiment [2] is reported as “significantly decreased the long:short axis ratio”. In experiment [3] (value in the sentence on U0126 (50 μM)), the “Oi (orientation index)” value worked out at 0.33±0.03.
In the case of `C/C1=C/C(=O)O[C@@H]2C[C@@H](CC[C@H](C)/C=C\C=C\CC1)O[C@@](O)([C@@H]1CSC(=O)N1)C2` [Latrunculin A], the EF-induced elongation response entry in experiment [2] (latrunculin 50 nM) is “completely abolished”. The orientation response result in experiment [3] (latrunculin 50 nM, 1 hour before and during EF) is given as “suppressed the orientation response significantly”.
As for `N#CC(=C(/N)Sc1ccccc1N)/C(C#N)=C(\N)Sc1ccccc1N` [U0126], in experiment [3], the orientation response result was “decreased the orientation to a similar extent”.
